{"source": "paper PMC6102140", "about": "“Structural insight into the human mitochondrial tRNA purine N1-methyltransferase and ribonuclease P complexes” (The Journal of Biological Chemistry, 2018)", "molecules": {"B1": {"name": "MRPP2 (Homo sapiens) (protein)", "chain": "AAACRSVKGLVAVITGGASGLGLATAERLVGQGASAVLLDLPNSGGEAQAKKLGNNCVFAPADVTSEKDVQTALALAKGKFGRVDVAVNCAGIAVASKTYNLKKGQTHTLEDFQRVLDVNLMGTFNVIRLVAGEMGQNEPDQGGQRGVIINTASVAAFEGQVGQAAYSASKGGIVGMTLPIARDLAPIGIRVMTIAPGLFGTPLLTSLPEKVCNFLASQVPFPSRLGDPAEYAHLVQAIIENPFLNGEVIRLDGAIRMQP", "notes": "full-length MRPP2, N-terminal His6 (pNIC28-Bsa4), TEV treated, E. coli; homotetramer"}, "B2": {"name": "MRPP1ΔMTS–MRPP2 complex (SDR activity of MRPP2) (Homo sapiens) (protein)", "chain": "B1 chain", "notes": "co-expressed in E. coli; His-tagged mature MRPP1 (40-403) and untagged full-length MRPP2; 2:4 complex, 194 kDa by SEC-MALS; with tRNA methyltransferase 10 homolog C"}, "B3": {"name": "MRPP1_(ΔMTS) (mature mitochondrial RNase P protein 1, aa 40–403), expressed alone (natural protein, human, UniProt Q7L0Y3 40-403, looked up)", "chain": "MSSKIPAVTYPKNESTPPSEELELDKWKTTMKSSVQEECVSTISSSKDEDPLAATREFIEMWRLLGREVPEHITEEELKTLMECVSNTAKKKYLKYLYTKEKVKKARQIKKEMKAAAREEAKNIKLLETTEEDKQKNFLFLRLWDRNMDIAMGWKGAQAMQFGQPLVFDMAYENYMKRKELQNTVSQLLESEGWNRRNVDPFHIYFCNLKIDGALHRELVKRYQEKWDKLLLTSTEKSHVDLFPKDSIIYLTADSPNVMTTFRHDKVYVIGSFVDKSMQPGTSLAKAKRLNLATECLPLDKYLQWEIGNKNLTLDQMIRILLCLKNNGNWQEALQFVPKRKHTGFLEISQHSQEFINRLKKAKT", "notes": "human MRPP1 (TRMT10C/RG9MTD1), 403 aa precursor; residues 40-403, without the mitochondrial targeting signal (1-39); In solution a mixture of monomer and dimer; also called TRMT10C; RG9MTD1; source: E. coli BL21(DE3)-R3-pRARE2, purified"}, "B4": {"name": "MRPP2, untagged, co-expressed with His-tagged MRPP1 constructs (bicistronic plasmid), Q99714 1-261 (natural protein)", "chain": "MAAACRSVKGLVAVITGGASGLGLATAERLVGQGASAVLLDLPNSGGEAQAKKLGNNCVFAPADVTSEKDVQTALALAKGKFGRVDVAVNCAGIAVASKTYNLKKGQTHTLEDFQRVLDVNLMGTFNVIRLVAGEMGQNEPDQGGQRGVIINTASVAAFEGQVGQAAYSASKGGIVGMTLPIARDLAPIGIRVMTIAPGLFGTPLLTSLPEKVCNFLASQVPFPSRLGDPAEYAHLVQAIIENPFLNGEVIRLDGAIRMQP"}, "B5": {"name": "MRPP2 (HSD17B10), expressed alone, tag removed, Q99714 1-261 (natural protein)", "chain": "B4 chain"}}, "key": {"[1]": {"target": "T1, MRPP1ΔMTS–MRPP2 complex (SDR activity of MRPP2) (Homo sapiens, UniProt Q99714)", "T1 construct": "gene HSD17B10; co-expressed in E. coli; His-tagged mature MRPP1 (40-403) and untagged full-length MRPP2; 2:4 complex, 194 kDa by SEC-MALS; with tRNA methyltransferase 10 homolog C", "T1 sequence (Q99714 2-261)": "B1 chain", "T1 sequence (Q7L0Y3 40-403 partner)": "B3 chain", "experiment": "differential scanning fluorimetry", "type": "binding", "details": "pH 7.5, 150 mM NaCl"}, "[2]": {"target": "MRPP1N (N domain of MRPP1), expressed alone (human) (UniProt Q7L0Y3)", "experiment": "SEC; analytical SEC of single proteins, Superdex S200 10/300 GL (or KW403-4F), apparent mass from standards of known Mr, n = 3"}, "[3]": {"target": "T2, MRPP1MT+C(Δ194) (Homo sapiens, UniProt Q7L0Y3)", "T2 construct": "gene TRMT10C; methyltransferase domain with C extension, residues 195-403, N-terminal His6 vector, E. coli; monomer", "T2 sequence (Q7L0Y3 195-403)": "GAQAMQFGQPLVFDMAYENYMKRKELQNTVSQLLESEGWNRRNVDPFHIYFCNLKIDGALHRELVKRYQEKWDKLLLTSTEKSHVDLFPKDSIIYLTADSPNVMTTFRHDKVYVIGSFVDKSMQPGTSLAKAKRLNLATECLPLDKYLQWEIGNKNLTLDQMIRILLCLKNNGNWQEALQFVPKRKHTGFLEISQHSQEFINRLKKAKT", "experiment": "differential scanning fluorimetry", "type": "binding", "details": "pH 7.5, 150 mM NaCl"}, "[4]": {"target": "T3, MRPP1MT+C(Δ202) (Homo sapiens, UniProt Q7L0Y3)", "T3 construct": "gene TRMT10C; methyltransferase domain with C extension, residues 203-403, N-terminal His6 vector, E. coli; residues 380-403 disordered; monomer", "T3 sequence (Q7L0Y3 203-403)": "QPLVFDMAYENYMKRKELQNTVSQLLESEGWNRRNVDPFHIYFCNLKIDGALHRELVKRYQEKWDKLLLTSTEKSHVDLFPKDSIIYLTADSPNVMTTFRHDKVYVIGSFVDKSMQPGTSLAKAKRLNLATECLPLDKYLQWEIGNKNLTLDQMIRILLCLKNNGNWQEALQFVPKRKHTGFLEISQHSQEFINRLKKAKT", "experiment": "X-ray crystal structure, […] Å", "type": "binding", "details": "co-crystallised with SAM, 4 °C"}, "[5]": {"target": "T4, MRPP1ΔMTS (Homo sapiens, UniProt Q7L0Y3)", "T4 construct": "gene TRMT10C; mature protein without mitochondrial targeting signal, residues 40-403, N-terminal His6 vector, E. coli; monomer/dimer mixture", "T4 sequence (Q7L0Y3 40-403)": "B3 chain", "experiment": "differential scanning fluorimetry", "type": "binding", "details": "7.5 mM SAM; pH 7.5, 150 mM NaCl"}, "[6]": {"target": "T5, MRPP1ΔMTS–MRPP2 complex (SAM site / MTase activity of MRPP1) (Homo sapiens, UniProt Q7L0Y3)", "T5 construct": "gene TRMT10C; co-expressed in E. coli; His-tagged mature MRPP1 (40-403) and untagged full-length MRPP2; 2:4 complex, 194 kDa by SEC-MALS; with 3-hydroxyacyl-CoA dehydrogenase type-2", "T5 sequence (Q7L0Y3 40-403)": "B3 chain", "T5 sequence (Q99714 2-261 partner)": "B1 chain", "experiment": "differential scanning fluorimetry", "type": "binding", "details": "pH 7.5, 150 mM NaCl"}, "[7]": {"substrate": "CC(=O)[C@H]1CC[C@H]2[C@@H]3CC[C@H]4C[C@H](O)CC[C@]4(C)[C@H]3CC[C@]12C", "experiment": "3alpha-HSD (SDR) activity, fluorescence, Michaelis-Menten fit", "type": "biochemical, Homo sapiens", "details": "MRPP2 alone", "text": "3alpha-HSD (SDR) activity, fluorescence, Michaelis-Menten fit on MRPP2 | measured using the neurosteroid allopregnanolone as MRPP2 substrate"}, "[8]": {"substrate": "CC(=O)[C@H]1CC[C@H]2[C@@H]3CC[C@H]4C[C@H](O)CC[C@]4(C)[C@H]3CC[C@]12C", "experiment": "3alpha-HSD (SDR) activity, fluorescence, Michaelis-Menten fit", "type": "biochemical, Homo sapiens", "details": "in complex with MRPP1ΔMTS"}, "[9]": {"target": "the molecule itself", "experiment": "SEC; analytical SEC of single proteins, Superdex S200 10/300 GL (or KW403-4F), apparent mass from standards of known Mr, n = 3"}, "[10]": {"target": "T6, MRPP2, untagged, co-expressed with His-tagged MRPP1 constructs (bicistronic plasmid) (human), Q99714", "T6 chain": "B4 chain", "experiment": "SEC-SAXS; KW403-4F column in line with SAXS, 4.5 mg/ml; 50 mM sodium phosphate pH 7.4, 300 mM NaCl, 5% glycerol, 1% sucrose, 0.5 mM TCEP (for MRPP1, MRPP2 and MRPP1–MRPP2; buffer for MRPP3 alone not told); no tRNA", "details": "remark: other sources report otherwise"}, "[11]": {"target": "T7, MRPP2 (HSD17B10), expressed alone, tag removed (human), Q99714", "T7 chain": "B4 chain", "experiment": "SEC-SAXS; KW403-4F column in line with SAXS, 4.5 mg/ml; 50 mM sodium phosphate pH 7.4, 300 mM NaCl, 5% glycerol, 1% sucrose, 0.5 mM TCEP (for MRPP1, MRPP2 and MRPP1–MRPP2; buffer for MRPP3 alone not told); no tRNA", "details": "remark: other sources report otherwise"}, "[12]": {"details": "ligand concentration not in text, text says MTase domain, construct boundary not stated"}}}
{"molecule": "NC(=O)C1=CN([C@@H]2O[C@H](COP(=O)(O)OP(=O)(O)OC[C@H]3O[C@@H](n4cnc5c(N)ncnc54)[C@H](O)[C@@H]3O)[C@@H](O)[C@H]2O)C=CC1", "note": "[NADH]", "values": [{"measurement": "Tm shift", "setting": "[1]", "result": "retained their ability to bind the cofactor (NADH) and methyl donor (SAM)"}]}
{"molecule": "MRPP1N (N domain of MRPP1), expressed alone (from UniProt Q7L0Y3 40-203) (domain or fragment)", "values": [{"measurement": "stoichiometry N", "setting": "[2]", "result": 2}]}
{"molecule": "Nc1ncnc2c1ncn2[C@@H]1O[C@H](CSCC[C@H](N)C(=O)O)[C@@H](O)[C@H]1O", "note": "[S-adenosyl-homocysteine]", "values": [{"measurement": "Tm shift", "setting": "[3]; [12]", "result": "5.00 ± 0.18", "unit": "°C"}]}
{"molecule": "Nc1ncnc2c1ncn2[C@@H]1O[C@H](CO)[C@@H](OP(=O)(O)O)[C@H]1O", "note": "[3′-AMP]", "values": [{"measurement": "Tm shift", "setting": "[3]; [12]", "result": "3.65 ± 0.16", "unit": "°C"}]}
{"molecule": "C[S+](CC[C@H](N)C(=O)O)C[C@H]1O[C@@H](n2cnc3c(N)ncnc32)[C@H](O)[C@@H]1O", "note": "(stereo partly drawn) [SAM, S-adenosyl-L-methionine]", "values": [{"measurement": "X-ray crystal structure, 1.96 Å", "setting": "[4]", "result": "Each MRPP1MT subunit is bound by a SAM molecule"}, {"measurement": "Tm shift", "setting": "[5]", "result": "6.04 ± 0.09", "unit": "°C"}, {"measurement": "Tm shift", "setting": "[6]", "result": "retained their ability to bind the cofactor (NADH) and methyl donor (SAM)"}, {"measurement": "Tm shift", "setting": "[3]; 7.5 mM SAM", "result": "9.75 ± 0.48", "unit": "°C"}]}
{"molecule": "B1", "values": [{"measurement": "Km", "setting": "[7]", "result": "7.70 ± 0.50", "unit": "µM"}]}
{"molecule": "B2", "values": [{"measurement": "Km", "setting": "[8]", "result": "3.40 ± 0.40", "unit": "µM"}]}
{"molecule": "B3", "values": [{"measurement": "stoichiometry N", "setting": "[9]", "result": 2}]}
{"molecule": "B4", "values": [{"measurement": "stoichiometry N", "setting": "[10]", "result": 4}]}
{"molecule": "B5", "values": [{"measurement": "stoichiometry N", "setting": "[11]", "result": 4}]}
